Results on seven compounds are retold here after patent US6596773B2, “Phenyl substituted pyridine and benzene derivatives” (Hoffmann-La Roche Inc., priority 1999, dated 2003).

In one series the target is T1, human NK1 receptor (Homo sapiens, UniProt P25103).
T1 construct: expressed in transfected cells; host or cells: CHO cells infected using the Semliki virus expression system; membrane suspension
Put plainly: NK1 receptor binding assay, displacement of [3H]substance P. The settings on record: human NK1 receptors in CHO cells (Semliki virus expression system), [3H]substance P 0.6 nM, 60 min at room temperature; read-out: affinity to the NK-1 receptor, given as pKi (converted). As to the method: The affinity of test compounds for the NK1 receptor was evaluated at human NK1 receptors in CHO cells infected with the human NK1 receptor (using the Semliki virus expression system) and radiolabelled with [3H]substance P (final concentration 0.6 nM). Binding assays were performed in HEPES buffer (50 mM, pH 7.4) containing BSA (0.04%) leupeptin ([…]), MnCl2 (3 mM) and phosphoramidon ([…]). Binding assays consisted of […] of membrane suspension (1.25×10^5 cells/assay tube), 0.125 ml of buffer of displacing agent and […] of [3H]substance P. Displacement curves were determined with at least seven concentrations of the compound. The assay tubes were incubated for 60 min at room temperature after which time the tube contents were rapidly filtered under vacuum through GF/C filters presoaked for 60 min with PEI (0.3%) with 2×2 ml washed of HEPES buffer (50 mM, pH 7.4). The radioactivity retained on the filters was measured by scintillation counting. All assays were performed in triplicate in at least 2 separate experiments.
(Loss of bound radioactivity is the signal in a displacement assay; it reports binding, not function.)

T1 sequence (P25103 whole entry): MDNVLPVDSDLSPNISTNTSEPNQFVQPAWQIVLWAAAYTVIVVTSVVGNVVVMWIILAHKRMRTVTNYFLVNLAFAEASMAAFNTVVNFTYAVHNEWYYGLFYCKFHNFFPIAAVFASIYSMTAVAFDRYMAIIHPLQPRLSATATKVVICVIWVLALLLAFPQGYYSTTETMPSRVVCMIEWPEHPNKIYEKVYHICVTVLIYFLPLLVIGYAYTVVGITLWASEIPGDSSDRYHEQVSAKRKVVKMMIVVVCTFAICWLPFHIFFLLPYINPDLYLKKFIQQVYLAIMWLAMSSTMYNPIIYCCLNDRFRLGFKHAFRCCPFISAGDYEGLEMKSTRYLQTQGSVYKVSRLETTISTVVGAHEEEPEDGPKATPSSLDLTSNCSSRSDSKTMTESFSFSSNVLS

Usually melting point stands for the temperature of the solid-liquid transition. `CN1CCN(c2cc(C(=O)c3ccccc3)c(C(=O)N(C)Cc3cc(C(F)(F)F)cc(C(F)(F)F)c3)cn2)CC1.Cl`: the melting point is 105 °C (dec.). Turning to `CN1CCN(c2cc(C(=O)c3ccccc3Cl)c(C(=O)N(C)Cc3cc(C(F)(F)F)cc(C(F)(F)F)c3)cn2)CC1.Cl`, the melting point was 145 °C (dec.). The same measure, in the same setting: under `CN(C(=O)C(C)(C)c1cc(C(F)(F)F)cc(C(F)(F)F)c1)c1ccc(Cl)cc1C(=O)c1ccccc1` [Example 2, N-(2-Benzoyl-4-chloro-phenyl)-2-(3,5-bis-trifluoromethyl-phenyl)-N-methyl-isobutyramide] stands 89 to 91 °C. With `CN(Cc1cc(C(F)(F)F)cc(C(F)(F)F)c1)C(=O)c1cnc(N2CCOCC2)cc1Oc1ccccc1` [Example 28, N-(3,5-Bis-trifluoromethyl-benzyl)-N-methyl-6-morpholin-4-yl-4-phenoxy-nicotinamide], the Ki at human NK1 receptor is 13.8 nM.

For `CN(Cc1cc(C(F)(F)F)cc(C(F)(F)F)c1)C(=O)c1cnc(N2CCOCC2)cc1Oc1ccccc1Cl` [Example 29, N-(3,5-Bis-trifluoromethyl-benzyl)-4-(2-chloro-phenoxy)-N-methyl-6-morpholin-4-yl-nicotinamide], the Ki on human NK1 receptor is 1.74 nM. Same read-out and setting: in the case of `CN1CCN(c2cc(Oc3ccccc3Cl)c(C(=O)N(C)Cc3cc(C(F)(F)F)cc(C(F)(F)F)c3)cn2)CC1` [Example 30, N-(3,5-Bis-trifluoromethyl-benzyl)-4-(2-chloro-phenoxy)-N-methyl-6-(4-methyl-piperazin-1-yl)-nicotinamide] it was 3.8 nM; in that of `Cc1ccccc1Oc1cc(N2CCOCC2)ncc1C(=O)N(C)Cc1cc(C(F)(F)F)cc(C(F)(F)F)c1` [Example 31, N-(3,5-Bis-trifluoromethyl-benzyl)-N-methyl-6-morpholin-4-yl-4-o-tolyloxy-nicotinamide], 2.75 nM.
